Target: G-protein coupled receptor 84 (Homo sapiens, UniProt Q9NQS5)
Sequence (Q9NQS5 whole entry): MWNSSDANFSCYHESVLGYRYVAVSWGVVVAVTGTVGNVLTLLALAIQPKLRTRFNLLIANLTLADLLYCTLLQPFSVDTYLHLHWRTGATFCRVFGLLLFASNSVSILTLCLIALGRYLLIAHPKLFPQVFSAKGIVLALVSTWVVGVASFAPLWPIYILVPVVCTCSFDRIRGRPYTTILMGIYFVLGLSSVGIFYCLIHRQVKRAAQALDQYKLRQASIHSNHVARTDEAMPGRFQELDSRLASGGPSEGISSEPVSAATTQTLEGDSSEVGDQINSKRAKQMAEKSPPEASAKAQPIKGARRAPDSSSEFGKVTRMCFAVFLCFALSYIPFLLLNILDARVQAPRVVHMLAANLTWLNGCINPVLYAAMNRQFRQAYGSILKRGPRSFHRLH
Description: Antagonist activity at human GPR84 expressed in HEK293 cells co-expressing Galpha16 assessed as inhibition of 6-OAU-induced calcium response

In the case of `Cc1cc2ccccc2c2c1OP(=O)(O)Oc1c(C)cc3ccccc3c1-2`, the IC50 is reported as > 100 µM.

Source: ChEMBL document CHEMBL5500419, “Discovery of GPR84 Fluorogenic Probes Based on a Novel Antagonist for GPR84 Bioimaging” (J Med Chem, 2024)
